Assay results: PubChem BioAssay (NCI)
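Five compound concentrations were applied to cells in 96-well plates for 48 hours; endpoints were derived by simple linear interpolation of the resulting dose-response curve. At the GI50, growth is halved. TGI marks complete inhibition of growth.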

How the values were obtained:
Experiment in all cases: NCI tumour cell line growth inhibition, 48 h; in the data active means GI50 below about 0.43 µM; inactive means the rest
HCT-15 colon = test system: HCT-15 colon
HOP-18 NSCLC = test system: HOP-18 NSCLC
HOP-92 NSCLC = test system: HOP-92 NSCLC
LXFL 529 NSCLC = test system: LXFL 529 NSCLC
NCI-H23 lung = test system: NCI-H23 lung
OVCAR-3 ovarian = test system: OVCAR-3 ovarian
SF-539 CNS = test system: SF-539 CNS
SN12C renal = test system: SN12C renal
U251 CNS = test system: U251 CNS
UO-31 renal = test system: UO-31 renal
XF 498 CNS = test system: XF 498 CNS
UACC-62 melanoma = test system: UACC-62 melanoma

CCOC(C)OC1CC(n2cc(C)c(=O)[nH]c2=O)OC1CO (stereo unspecified)
> 100 µM: TGI (HCT-15 colon) | TGI (HOP-18 NSCLC) | TGI (HOP-92 NSCLC) | TGI (LXFL 529 NSCLC) | TGI (NCI-H23 lung) | TGI (OVCAR-3 ovarian) | TGI (SF-539 CNS) | TGI (SN12C renal) | TGI (U251 CNS) | TGI (UO-31 renal) | TGI (XF 498 CNS)

CCOC(=O)Cn1c(=O)c(C)cn(COCCO)c1=O
> 100 µM: TGI (HOP-92 NSCLC) | TGI (NCI-H23 lung) | TGI (OVCAR-3 ovarian) | TGI (SF-539 CNS) | TGI (SN12C renal) | TGI (U251 CNS) | TGI (UO-31 renal)

CN1CN(C(=O)N2CN(C)C(=O)N(C)C2)CN(C)C1=O
> 100 µM: TGI (HCT-15 colon) | TGI (HOP-18 NSCLC) | TGI (LXFL 529 NSCLC) | TGI (OVCAR-3 ovarian) | TGI (SF-539 CNS) | TGI (SN12C renal) | TGI (UACC-62 melanoma) | TGI (UO-31 renal) | TGI (XF 498 CNS)

CC1OC(=O)C(C(C)C)NC(=O)C(C(C)C)OC(=O)C(C(C)C)NC(=O)C(C)OC(=O)C(C(C)C)NC(=O)C(C(C)C)OC(=O)C(C(C)C)NC(=O)C(C)OC(=O)C(C(C)C)NC(=O)C(C(C)C)OC(=O)C(C(C)C)NC1=O (stereo unspecified)
4.53 µM: TGI (HCT-15 colon)
1.05 µM: TGI (U251 CNS)
0.0503 µM: TGI (NCI-H23 lung)
0.0539 µM: TGI (HOP-18 NSCLC)
0.0541 µM: TGI (UO-31 renal)
0.233 µM: TGI (SN12C renal)
5.58 µM: TGI (UACC-62 melanoma)
0.328 µM: TGI (SF-539 CNS)
active: GI50 (HCT-15 colon) 0.000358 µM | GI50 (HOP-92 NSCLC) < 0.0001 µM | GI50 (NCI-H23 lung) < 0.0001 µM | GI50 (OVCAR-3 ovarian) < 0.0001 µM | GI50 (SF-539 CNS) 0.000484 µM | GI50 (SN12C renal) 0.00019 µM | GI50 (U251 CNS) < 0.0001 µM | GI50 (UACC-62 melanoma) < 0.0001 µM
0.0148 µM: TGI (OVCAR-3 ovarian)

CCOC(=O)C1=C(C)N(C2OC(COC(=O)c3ccccc3)C(OC(=O)c3ccccc3)C2OC(=O)c2ccccc2)C(=S)NC1c1ccccc1 (stereo unspecified)
> 100 µM: TGI (HOP-18 NSCLC) | TGI (LXFL 529 NSCLC) | TGI (NCI-H23 lung) | TGI (SF-539 CNS) | TGI (SN12C renal) | TGI (U251 CNS) | TGI (UACC-62 melanoma)
99.4 µM: TGI (UO-31 renal)
71.9 µM: TGI (OVCAR-3 ovarian)

CCN(CC)CCO[Si](OCCN(CC)CC)(OCCN(CC)CC)OCCN(CC)CC
> 100 µM: TGI (HCT-15 colon) | TGI (NCI-H23 lung) | TGI (OVCAR-3 ovarian) | TGI (SF-539 CNS) | TGI (SN12C renal) | TGI (U251 CNS) | TGI (UACC-62 melanoma) | TGI (UO-31 renal) | TGI (XF 498 CNS)

O=C(CCC1CCCCN1)Nc1ccc2c(c1)C(=O)c1ccc(NC(=O)CCN3CCCCC3)cc1C2=O (stereo unspecified)
4.34 µM: TGI (SN12C renal)
9.77 µM: TGI (HOP-18 NSCLC)
5.98 µM: TGI (HOP-92 NSCLC)
23.8 µM: TGI (U251 CNS)
2.68 µM: TGI (UO-31 renal)
8.46 µM: TGI (SF-539 CNS)
8.37 µM: TGI (OVCAR-3 ovarian)
5.27 µM: TGI (NCI-H23 lung)
2.7 µM: TGI (LXFL 529 NSCLC)

CN/N=C(\C(=O)Nc1ccc(C)c(C)c1)C(C(=O)OC)c1nc2ccc([N+](=O)[O-])cc2[nH]c1=O (stereo unspecified)
> 100 µM: TGI (HCT-15 colon) | TGI (HOP-92 NSCLC) | TGI (LXFL 529 NSCLC) | TGI (NCI-H23 lung) | TGI (SF-539 CNS) | TGI (SN12C renal) | TGI (U251 CNS) | TGI (UACC-62 melanoma) | TGI (UO-31 renal) | TGI (XF 498 CNS)
